Measured values taken from patent US20090270342A1, “IMMUNOREGULATORY AGENT” (priority 2006, published 2009).

Legend:
[1] = in vivo; cited from earlier work
[2] = test system: anti-Cry j 1-IgE, IgG1 in serum; experiment: Anti-Cry j 1 antibody in serum of Cry j 1/alum-sensitized mice (Experiment 5); assay type: in vivo; conditions: for Anti-Cry J 1-IgG1 in serum / Anti-Cry J 1-IgG1 in serum, relative to control: two weeks after the second sensitization
Protocol: In order to investigate the effect of lactosucorse on systemic immunity, antibody level in serum was measured. Similarly as in Experiment 1, female BALB/c mice (six weeks old) were preliminary reared for one week on “AIN-93G”, the same standard purified diet as used in Experiment 1. Successively, “NYU-KA OLIGO 700”, a saccharide composition comprising 71.4% (w/w), on a dry solid basis, of lactosucrose commercialized by Hayashibara Shoji Inc., Okayama, Japan, was incorporated into the above purified diet, in which corn starch equal to the amount of the saccharide composition comprising lactosucrose had been removed, to give a lactosucrose content of 2% (w/w) or 5% (w/w), and five to seven mice/group were allowed to ingest the resulting test diet freely. Mice, allowed to ingest “AIN-93G”, as the standard purified diet, were used as control. At 10 days after from starting the administration of the test diet, mice were sensitized to antigen by administrating 20 μg of ovalbumin (OVA) (grade V, commercialized by Sigma Corporation) as antigen and 4.5 mg of “IMJECT®”, alum commercialized by Pierce ThermoScientific as adjuvant, into the peritoneal cavity. Successively, 15 days after from the first sensitization, the second sensitization was carried out by the same procedure. The blood was collected from caudal vein of mice at one, two, and three weeks after from the second sensitization, the serum was collected by centrifugation, and the amount of IgE to OVA was measured by EIA. In the cases of IgG1 and IgG2a, the amount of antibody was measured using serum collected at two weeks after from the second sensitization. The IgE and IgG2a titers were measured by capture EIA and IgG1 titer was measured by indirect EIA. Each titer was calculated by calibration curve prepared by using anti-OVA mouse serum (IgE: 1.760 U/ml, IgG1: 128,000 U/ml, IgG2a: 7,040 u/ml) as a standard serum. The amounts of IgE at one, two, or three weeks after from the second sensitization are in Table 5, and the amounts of IgG1 and IgG2a of two weeks after from the second sensitization are in Table 6. The percentages in parentheses in tables mean a relative value to the antibody concentration in serum of the control mice.
In order to investigate the usefulness of lactosucrose ingestion for preventing or treating allergy to cedar pollen, the effect of lactosucrose for suppressing the production of IgE, caused by Cry j 1, a cedar pollen allergen, was investigated as follows. Except for using 20 μg of “PURIFIED CEDAR POLLEN ALLERGEN Cry j 1”, Cry j 1 commercialized by Seikagaku Corporation, Tokyo, Japan, as a substitute for OVA, the experiment was carried out by the same procedure as in Experiment 4, and the amount of anti-Cry j 1-IgE was measured at one and two weeks after the second sensitization. Further, the amount of anti-Cry j 1-IgG1 was also measured at two weeks after the second sensitization. The amounts of anti-Cry j 1-IgE and anti-Cry j 1-IgG1 were measured by the same procedure as in Experiment 4 except for using “PURIFIED CEDAR POLLEN ALLERGEN Cry j 1-Biotin”, commercialized by Seikagaku Corporation, Tokyo, Japan, as a solid phase. The results for IgE and IgG1 are in Tables 7 and 8, respectively.

## OC[C@H]1O[C@@H](O[C@H]2[C@H](O)[C@@H](O)[C@@H](O[C@]3(CO)O[C@H](CO)[C@@H](O)[C@@H]3O)O[C@@H]2CO)[C@H](O)[C@@H](O)[C@H]1O [Lactosucrose, β-D-galactosyl-(1,4)-α-D-glucosyl-(1,2)-β-D-fructoside]
[1]
  Effect of a dose higher than the maximum dose without harmful effect: causes diarrhea
  Maximum dose of lactosucrose without harmful effect: 0.6-0.8 g/kg-body weight
[2]; Lactosucrose 2% (w/w) diet, one week after the 2nd sensitization
  Anti-Cry j 1-IgE in serum: 351 ± 277 U/ml
[2]; Lactosucrose 2% (w/w) diet, two weeks after the 2nd sensitization
  Anti-Cry j 1-IgE in serum: 239 ± 180 U/ml
[2]; Lactosucrose 2% (w/w) diet
  Anti-Cry J 1-IgG1 in serum: 10.3 ± 6.01 ×10^4 U/ml
[2]; Lactosucrose 2% (w/w), one week after the 2nd sensitization
  Anti-Cry j 1-IgE in serum, relative to control: (44%)
[2]; Lactosucrose 2% (w/w), one week after the 2nd sensitization, listed as lactosucrose
  Anti-Cry j 1-IgE in serum, relative to control: 44%
[2]; Lactosucrose 2% (w/w), two weeks after the 2nd sensitization
  Anti-Cry j 1-IgE in serum, relative to control: (23%)
[2]; Lactosucrose 2% (w/w), two weeks after the 2nd sensitization, listed as lactosucrose
  Anti-Cry j 1-IgE in serum, relative to control: 23%
[2]; Lactosucrose 2% (w/w)
  Anti-Cry J 1-IgG1 in serum, relative to control: (80%)
[2]; Lactosucrose 5% (w/w) diet, one week after the 2nd sensitization
  Anti-Cry j 1-IgE in serum: 620 ± 157 U/ml
[2]; Lactosucrose 5% (w/w) diet, two weeks after the 2nd sensitization
  Anti-Cry j 1-IgE in serum: 404 ± 114 U/ml
[2]; Lactosucrose 5% (w/w) diet
  Anti-Cry J 1-IgG1 in serum: 7.51 ± 2.89 ×10^4 U/ml
[2]; Lactosucrose 5% (w/w), one week after the 2nd sensitization
  Anti-Cry j 1-IgE in serum, relative to control: (77%)
[2]; Lactosucrose 5% (w/w), two weeks after the 2nd sensitization
  Anti-Cry j 1-IgE in serum, relative to control: (38%)
[2]; Lactosucrose 5% (w/w)
  Anti-Cry J 1-IgG1 in serum, relative to control: (58%)
